From patent US20070049564A1 (Wyeth, priority 2005, published 2007)
≈ marks a conversion by molar mass, not a printed value. Like-named read-outs stand apart in the source and are kept apart here.

Experiments:
[1] = tested on: E. coli GC 2235; test: MIC, broth microdilution; settings: Escherichia coli, GC2235, E. coli GC 2235
[2] = tested on: E. coli GC 2272; test: MIC, broth microdilution; settings: Escherichia coli, GC2272, E. coli GC 2272
[3] = tested on: E. coli GC 4559; test: MIC, broth microdilution; settings: Escherichia coli, GC4559, E. coli GC 4559
[4] = tested on: E. coli GC 4560; test: MIC, broth microdilution; settings: Escherichia coli, GC4560, E. coli GC 4560
[5] = tested on: E. coli GC 6465; test: MIC, broth microdilution; settings: Escherichia coli, GC6465, E. coli GC 6465
[6] = tested on: E. coli GC 1073; test: MIC, broth microdilution; settings: Escherichia coli, GC1073, E. coli GC 1073
[7] = tested on: S. typhimurium GC 2172; test: MIC, broth microdilution; settings: Salmonella enterica, TYPHIMURIUM, S. typhimurium GC 2172
[8] = tested on: S. aureus GC 1131; test: MIC, broth microdilution; settings: Staphylococcus aureus, GC1131, S. aureus GC 1131
[9] = tested on: S. aureus GC 6467; test: MIC, broth microdilution; settings: Staphylococcus aureus, GC6467, S. aureus GC 6467
[10] = tested on: S. aureus GC 1079; test: MIC, broth microdilution; settings: Staphylococcus aureus, GC1079, S. aureus GC 1079
[11] = tested on: S. aureus GC 4536; test: MIC, broth microdilution; settings: Staphylococcus aureus, GC4536, S. aureus GC 4536
[12] = tested on: S. epidermidis GC 4935; test: MIC, broth microdilution; settings: Staphylococcus epidermidis, GC4935, S. epidermidis GC 4935
[13] = tested on: E. faecalis GC 4555; test: MIC, broth microdilution; settings: Enterococcus faecalis, GC4555, E. faecalis GC 4555
[14] = tested on: E. faecalis GC 2267; test: MIC, broth microdilution; settings: Enterococcus faecalis, GC2267, E. faecalis GC 2267
[15] = tested on: E. faecalis GC 2242; test: MIC, broth microdilution; settings: Enterococcus faecalis, GC2242, E. faecalis GC 2242
[16] = tested on: S. pneumoniae* GC 4465; test: MIC, broth microdilution; settings: Streptococcus pneumoniae, S. pneumoniae* GC 4465
[17] = tested on: S. pneumoniae+ GC 4465; test: MIC, broth microdilution; settings: Streptococcus pneumoniae, S. pneumoniae+ GC 4465
[18] = tested on: S. agalactiae GC 4564; test: MIC, broth microdilution; settings: Streptococcus agalactiae, GC4564, S. agalactiae GC 4564
[19] = tested on: c. albicans GC 3066; test: MIC, broth microdilution
[20] = tested on: Staph. aureus Smith; test: In vivo activity (oral, iv; ED50) against Staph. aureus Smith in mice
Protocol: Representative examples of compounds of Formula I were tested for the oral efficacy using S. aureus Smith in mice.

[21] = c. albicans GC 3066, Water pre-incubation

SMILES: CCCCN(CC(=O)Nc1cc(N(C)C)c2c(c1O)C(=O)C1=C(O)[C@]3(O)C(=O)C(C(N)=O)=C(O)[C@@H](N(C)C)C3CC1C2)C(=O)OCOC(=O)C(C)C (stereo partly drawn) [Example 1, ({[(2-{[(7S,10aS)-9-(aminocarbonyl)-4,7-bis(dimethylamino)-1,8,10a,11-tetrahydroxy-10,12-dioxo-5,5a,6,6a,7,10,10a,12-octahydrotetracen-2-yl]amino}-2-oxoethyl)(butyl)amino]carbonyl}oxy)methyl 2-methylpropanoate]
- MIC ([1]; Mouse Serum pre-incubation): 0.5 µg/mL (≈ 0.685 µM)
- MIC ([1]; Water pre-incubation): 16 µg/mL (≈ 21.9 µM)
- MIC ([2]; Mouse Serum pre-incubation): 1 µg/mL (≈ 1.37 µM)
- MIC ([2]; Water pre-incubation): 16 µg/mL (≈ 21.9 µM)
- MIC ([3]; Mouse Serum pre-incubation): 1 µg/mL (≈ 1.37 µM)
- MIC ([3]; Water pre-incubation): 32 µg/mL (≈ 43.8 µM)
- MIC ([4]; Mouse Serum pre-incubation): 0.5 µg/mL (≈ 0.685 µM)
- MIC ([4]; Water pre-incubation): 2 µg/mL (≈ 2.74 µM)
- MIC ([5]; Mouse Serum pre-incubation): 8 µg/mL (≈ 11 µM)
- MIC ([5]; Water pre-incubation): > 64 µg/mL
- MIC ([6]; Mouse Serum pre-incubation): 1 µg/mL (≈ 1.37 µM)
- MIC ([6]; Water pre-incubation): 32 µg/mL (≈ 43.8 µM)
- MIC ([7]; Mouse Serum pre-incubation): 4 µg/mL (≈ 5.48 µM)
- MIC ([7]; Water pre-incubation): > 64 µg/mL
- MIC ([8]; Mouse Serum pre-incubation): 1 µg/mL (≈ 1.37 µM)
- MIC ([8]; Water pre-incubation): 4 µg/mL (≈ 5.48 µM)
- MIC ([9]; Mouse Serum pre-incubation): 4 µg/mL (≈ 5.48 µM)
- MIC ([9]; Water pre-incubation): 4 µg/mL (≈ 5.48 µM)
- MIC ([10]; Mouse Serum pre-incubation): 2 µg/mL (≈ 2.74 µM)
- MIC ([10]; Water pre-incubation): 4 µg/mL (≈ 5.48 µM)
- MIC ([11]; Mouse Serum pre-incubation): 2 µg/mL (≈ 2.74 µM)
- MIC ([11]; Water pre-incubation): 4 µg/mL (≈ 5.48 µM)
- MIC ([12]; Mouse Serum pre-incubation): 2 µg/mL (≈ 2.74 µM)
- MIC ([12]; Water pre-incubation): 8 µg/mL (≈ 11 µM)
- MIC ([13]; Mouse Serum pre-incubation): 1 µg/mL (≈ 1.37 µM)
- MIC ([13]; Water pre-incubation): 4 µg/mL (≈ 5.48 µM)
- MIC ([14]; Mouse Serum pre-incubation): 2 µg/mL (≈ 2.74 µM)
- MIC ([14]; Water pre-incubation): 8 µg/mL (≈ 11 µM)
- MIC ([15]; Mouse Serum pre-incubation): 1 µg/mL (≈ 1.37 µM)
- MIC ([15]; Water pre-incubation): 4 µg/mL (≈ 5.48 µM)
- MIC ([16]; Mouse Serum pre-incubation): 0.5 µg/mL (≈ 0.685 µM)
- MIC ([16]; Water pre-incubation): 0.25 µg/mL (≈ 0.343 µM)
- MIC ([17]; Mouse Serum pre-incubation): 2 µg/mL (≈ 2.74 µM)
- MIC ([17]; Water pre-incubation): 2 µg/mL (≈ 2.74 µM)
- MIC ([18]; Mouse Serum pre-incubation): 0.5 µg/mL (≈ 0.685 µM)
- MIC ([18]; Water pre-incubation): 1 µg/mL (≈ 1.37 µM)
- MIC ([19]; Candida albicans, GC3066): > 64 µg/mL
- MIC [19, 21]: >64 UG/ML
- ED50 ([20]; Staphylococcus aureus, in Mus musculus, iv, read-out: ED50 SIV (Staph aureus Smith)): 0.6 mg/kg
- ED50 ([20]; Staphylococcus aureus, in Mus musculus, po, read-out: ED50 SOD (Staph aureus Smith)): 4.7 mg/kg

SMILES: CCCCN(CC(=O)Nc1cc(N(C)C)c2c(c1O)C(=O)C1=C(O)[C@]3(O)C(=O)C(C(N)=O)=C(O)[C@@H](N(C)C)C3CC1C2)C(=O)OCOC(=O)c1ccc(OC)cc1 (stereo partly drawn) [Example 2, ({[(2-{[(7S,10aS)-9-(aminocarbonyl)-4,7-bis(dimethylamino)-1,8,10a,11-tetrahydroxy-10,12-dioxo-5,5a,6,6a,7,10,10a,12-octahydrotetracen-2-yl]amino}-2-oxoethyl)(butyl)amino]carbonyl}oxy)methyl 4-methoxybenzoate]
- MIC ([1]; Mouse Serum pre-incubation): 2 µg/mL (≈ 2.52 µM)
- MIC ([1]; Water pre-incubation): 64 µg/mL (≈ 80.6 µM)
- MIC ([2]; Mouse Serum pre-incubation): 1 µg/mL (≈ 1.26 µM)
- MIC ([2]; Water pre-incubation): 64 µg/mL (≈ 80.6 µM)
- MIC ([3]; Mouse Serum pre-incubation): 1 µg/mL (≈ 1.26 µM)
- MIC ([3]; Water pre-incubation): 64 µg/mL (≈ 80.6 µM)
- MIC ([4]; Mouse Serum pre-incubation): 0.25 µg/mL (≈ 0.315 µM)
- MIC ([4]; Water pre-incubation): 4 µg/mL (≈ 5.04 µM)
- MIC ([5]; Mouse Serum pre-incubation): 8 µg/mL (≈ 10.1 µM)
- MIC ([5]; Water pre-incubation): 64 µg/mL (≈ 80.6 µM)
- MIC ([6]; Mouse Serum pre-incubation): 4 µg/mL (≈ 5.04 µM)
- MIC ([6]; Water pre-incubation): 64 µg/mL (≈ 80.6 µM)
- MIC ([7]; Mouse Serum pre-incubation): > 64 µg/mL
- MIC ([7]; Water pre-incubation): > 64 µg/mL
- MIC ([8]; Mouse Serum pre-incubation): 2 µg/mL (≈ 2.52 µM)
- MIC ([8]; Water pre-incubation): 4 µg/mL (≈ 5.04 µM)
- MIC ([9]; Mouse Serum pre-incubation): 4 µg/mL (≈ 5.04 µM)
- MIC ([9]; Water pre-incubation): 8 µg/mL (≈ 10.1 µM)
- MIC ([10]; Mouse Serum pre-incubation): 8 µg/mL (≈ 10.1 µM)
- MIC ([10]; Water pre-incubation): 8 µg/mL (≈ 10.1 µM)
- MIC ([11]; Mouse Serum pre-incubation): 2 µg/mL (≈ 2.52 µM)
- MIC ([11]; Water pre-incubation): 4 µg/mL (≈ 5.04 µM)
- MIC ([12]; Mouse Serum pre-incubation): 8 µg/mL (≈ 10.1 µM)
- MIC ([12]; Water pre-incubation): 8 µg/mL (≈ 10.1 µM)
- MIC ([13]; Mouse Serum pre-incubation): 2 µg/mL (≈ 2.52 µM)
- MIC ([13]; Water pre-incubation): 4 µg/mL (≈ 5.04 µM)
- MIC ([14]; Mouse Serum pre-incubation): 4 µg/mL (≈ 5.04 µM)
- MIC ([14]; Water pre-incubation): 4 µg/mL (≈ 5.04 µM)
- MIC ([15]; Mouse Serum pre-incubation): 4 µg/mL (≈ 5.04 µM)
- MIC ([15]; Water pre-incubation): 4 µg/mL (≈ 5.04 µM)
- MIC ([16]; Mouse Serum pre-incubation): 0.5 µg/mL (≈ 0.63 µM)
- MIC ([16]; Water pre-incubation): 0.25 µg/mL (≈ 0.315 µM)
- MIC ([17]; Mouse Serum pre-incubation): 2 µg/mL (≈ 2.52 µM)
- MIC ([17]; Water pre-incubation): 4 µg/mL (≈ 5.04 µM)
- MIC ([18]; Mouse Serum pre-incubation): 2 µg/mL (≈ 2.52 µM)
- MIC ([18]; Water pre-incubation): 2 µg/mL (≈ 2.52 µM)
- MIC ([19]; Candida albicans, GC3066): > 64 µg/mL
- MIC [19, 21]: >64 UG/ML
- ED50 ([20]; Staphylococcus aureus, in Mus musculus, po, read-out: ED50 Staph Smith SOD): 13.3 mg/kg
- ED50 ([20]; iv, read-out: ED50 Staph Smith SIV): 0.71 mg/kg
